Results reported in ChEMBL document CHEMBL1201862, “PubChem BioAssay data set” (2004).
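In this assay, cells in 96-well plates receive the compound at five concentrations for 48 hours. Endpoints are linearly interpolated between the surrounding concentrations. At the GI50, growth is halved.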 Calls of active or inactive are those of the source. No stated cut-off is given here; in the data, active = GI50 up to about 1.1 µM and inactive = higher.

Tests used:
Assay in all cases: DTP human tumour cell line panel, 48 h
[1] = system: 786-0
[2] = system: A549
[3] = system: ACHN
[4] = system: COLO 205
[5] = system: DU-145
[6] = system: EKVX
[7] = system: HOP-92
[8] = system: Hs-578T
[9] = system: M14
[10] = system: MDA-MB-231
[11] = system: NCI-H226
[12] = system: OVCAR-4
[13] = system: RXF 393
[14] = system: SF-268
[15] = system: SNB-75
[16] = system: SW-620
[17] = system: T47D
[18] = system: A498
[19] = system: HL-60

Measured: GI50

O=c1cccc(Cl)[nH]1
inactive: [1] > 100 µM | [2] > 100 µM | [3] > 100 µM | [4] > 100 µM | [5] > 100 µM | [6] > 100 µM | [7] > 100 µM | [8] > 100 µM | [9] > 100 µM | [10] > 100 µM | [11] > 100 µM | [12] > 100 µM | [13] > 100 µM | [14] > 100 µM | [15] > 100 µM | [16] > 100 µM | [17] > 100 µM

CCN1C(=O)C(C)S/C1=N\NC(=O)CSc1nc2ccccc2c(=O)n1CC (stereo unspecified)
inactive: [1] > 100 µM | [18] > 100 µM | [2] > 100 µM | [3] > 100 µM | [4] > 100 µM | [5] > 100 µM | [6] > 100 µM | [19] > 100 µM | [8] > 100 µM | [9] > 100 µM | [10] > 100 µM | [11] > 100 µM | [12] 92 µM | [13] > 100 µM | [14] 90.6 µM | [15] > 100 µM | [16] > 100 µM | [17] > 100 µM

CC1(C)C2CCC(O)(C2)C1N (stereo unspecified)
inactive: [1] > 100 µM | [2] > 100 µM | [3] > 100 µM | [4] > 100 µM | [5] > 100 µM | [6] > 100 µM | [7] > 100 µM | [8] > 100 µM | [9] > 100 µM | [10] > 100 µM | [11] > 100 µM | [12] > 100 µM | [13] > 100 µM | [14] > 100 µM | [15] > 100 µM | [16] > 100 µM | [17] > 100 µM

COC(=O)C1CC2CCC1(O[Si](C(C)C)(C(C)C)C(C)C)C(O)C2 (stereo unspecified)
inactive: [1] 16.9 µM | [18] 96.6 µM | [2] 16.8 µM | [3] 22.8 µM | [4] 29.4 µM | [5] 16.4 µM | [6] 16 µM | [19] 13.1 µM | [8] 18.1 µM | [9] 17.3 µM | [10] 17.7 µM | [11] 21.2 µM | [12] 28.6 µM | [13] 15 µM | [14] 26.2 µM | [15] 21.9 µM | [16] 26.4 µM | [17] 25.8 µM

O=C1CCCC/C1=C\c1ccc([N+](=O)[O-])cc1
inactive: [1] 14.9 µM | [2] 25.5 µM | [3] 24 µM | [4] 18.4 µM | [5] 39.1 µM | [6] 39.6 µM | [19] 42.5 µM | [7] 19.6 µM | [8] 28.3 µM | [9] 18.4 µM | [10] 21.8 µM | [12] 22.5 µM | [14] 34.6 µM | [15] 18.3 µM | [16] 1.96 µM | [17] 23.6 µM
